# Results reported in patent US8846908B2, “Tricyclic carbamate JAK inhibitors” (Rigel Pharmaceuticals, Inc., priority 2008, dated 2014).
# Biological target: BaF3 V617F cells (Homo sapiens, UniProt O60674, V617F, cells depend on it)
# Experiment: Proliferation assay, BaF3 V617F cells (Cell Titer-Glo)
# Assay type: cell-based, mouse
# Details: proliferation for 72 hours at 37° C., stated to show ability to inhibit JAK2 activity, read-out: IC50 (the source's name)
# Description: BaF3 V617F cells are maintained and plated in RPMI with 10% FBS. Plating density for these cells is 1×10^5 cells/mL.
# The cells were resuspended in a corresponding medium at a required cell density (see above). 100μ of cell suspension was added to each well of a flat bottom 96 well white plate. The compound was serially diluted in DMSO from 5 mM in 3-fold dilutions, and then diluted 1:250 in the RPMI 1640 medium containing 5% FBS and pen/strep. 100 μL of resulting 2× compound solution was added per well in duplicate and the cells were allowed to proliferate for 72 hours at 37° C.
# Proliferation was measured using Cell Titer-Glo. The substrate was thawed and allowed to come to room temperature. After removal of top 100 μL of medium from each well, 100 μL of the premixed Cell Titer-Glo reagent was added to each well. The plates were mixed on an orbital shaker for three minutes to induce lysis and incubated at ambient temperature for an additional five minutes to allow the signal to equilibrate. The Luminescence was read on the Wallac Plate Reader.
# The results of the ability of the compounds of the invention to inhibit JAK2 activity, when tested in the above assay, are shown in the following Table 2 wherein the level of activity (i.e., the IC50) for each compound is indicated in Table 2. The compound numbers in Table 2 refers to the compounds disclosed herein as being prepared by the methods disclosed herein.
# Sequence of BaF3 V617F cells (O60674 whole entry V617F): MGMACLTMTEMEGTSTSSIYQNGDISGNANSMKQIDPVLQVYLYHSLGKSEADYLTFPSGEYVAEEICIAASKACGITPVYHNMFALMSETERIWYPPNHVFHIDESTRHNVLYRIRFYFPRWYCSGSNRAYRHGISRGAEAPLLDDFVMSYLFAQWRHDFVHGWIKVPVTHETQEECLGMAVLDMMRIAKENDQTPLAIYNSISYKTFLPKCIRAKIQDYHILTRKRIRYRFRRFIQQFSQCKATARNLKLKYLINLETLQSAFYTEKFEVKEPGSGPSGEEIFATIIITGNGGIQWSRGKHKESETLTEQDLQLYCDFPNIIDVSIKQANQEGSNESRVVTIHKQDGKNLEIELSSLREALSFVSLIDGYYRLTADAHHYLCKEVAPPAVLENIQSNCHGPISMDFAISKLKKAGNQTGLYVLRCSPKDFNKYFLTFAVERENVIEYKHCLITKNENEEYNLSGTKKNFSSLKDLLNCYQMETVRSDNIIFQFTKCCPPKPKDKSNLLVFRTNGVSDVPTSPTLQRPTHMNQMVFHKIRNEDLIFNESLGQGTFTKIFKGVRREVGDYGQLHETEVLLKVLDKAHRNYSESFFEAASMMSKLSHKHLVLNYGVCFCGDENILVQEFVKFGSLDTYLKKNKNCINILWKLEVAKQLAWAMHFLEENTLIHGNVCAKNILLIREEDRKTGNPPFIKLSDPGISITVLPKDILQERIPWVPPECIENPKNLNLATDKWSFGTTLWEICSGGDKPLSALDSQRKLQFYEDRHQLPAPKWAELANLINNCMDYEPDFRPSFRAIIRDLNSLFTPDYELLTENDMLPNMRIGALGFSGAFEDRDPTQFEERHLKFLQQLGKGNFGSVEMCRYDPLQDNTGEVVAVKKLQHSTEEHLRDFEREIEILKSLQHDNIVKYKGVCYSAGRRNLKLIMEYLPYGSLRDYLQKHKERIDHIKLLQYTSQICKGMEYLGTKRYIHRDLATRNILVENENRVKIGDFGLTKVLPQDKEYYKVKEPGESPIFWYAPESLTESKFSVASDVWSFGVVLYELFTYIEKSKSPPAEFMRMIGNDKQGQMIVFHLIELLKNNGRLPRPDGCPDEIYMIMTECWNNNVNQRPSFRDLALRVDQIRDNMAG
row,Compound,GI50 [nM]
1,"Cc1cnc(Nc2ccc3c(c2)[C@H]2NC(=O)O[C@H]2C3)nc1Nc1cccc2c1CCCC2 [Compound 37, 5-Methyl-N2-[(3aR,8aS)-2-oxo-3,3a,8,8a-tetrahydro-2H-indeno[1,2-d]oxazol-5-yl]-N4-(5,6,7,8-tetrahydronaphthalen-1-yl)-2,4-pyrimidinediamine]",< 250
2,"Cc1cnc(Nc2ccc3c(c2)[C@H]2NC(=O)O[C@H]2C3)nc1Nc1ccc2c(c1)N(C)C(=O)CS2 [Compound 4, 5-Methyl-N4-(4-methyl-3-oxo-2H-benz[1,4]thiazin-6-yl)-N2-[(3aR,8aS)-2-oxo-3,3a,8,8a-tetrahydro-2H-indeno[1,2-d]oxazol-5-yl]-2,4-pyrimidinediamine]",500 to 1000
3,"Cc1cnc(Nc2ccc3c(c2)[C@H]2NC(=O)O[C@H]2C3)nc1Nc1ccc(OCc2cccnc2)cc1 [Compound 31, 5-Methyl-N2-[(3aR,8aS)-2-oxo-3,3a,8,8a-tetrahydro-2H-indeno[1,2-d]oxazol-5-yl]-N4-[4-(pyridin-3-ylmethoxy)phenyl]-2,4-pyrimidinediamine]",250 to 500
4,"O=C1N[C@H]2c3cc(Nc4ncc(Cl)c(Nc5cccc6c5OCCO6)n4)ccc3C[C@H]2O1 [Compound 23, N4-(1,4-Benzodioxan-5-yl)-5-chloro-N2-[(3aS,8aR)-2-oxo-3,3a,8,8a-tetrahydro-2H-indeno[1,2-d]oxazol-5-yl]-2,4-pyrimidinediamine]",1000 to 5000
5,"Cc1cnc(Nc2ccc3c(c2)[C@@H]2NC(=O)O[C@@H]2C3)nc1Nc1ccc(OCc2ccccn2)cc1 [Compound 28, 5-Methyl-N2-[(3aS,8aR)-2-oxo-3,3a,8,8a-tetrahydro-2H-indeno[1,2-d]oxazol-5-yl]-N4-[4-(pyridin-2-ylmethoxy)phenyl]-2,4-pyrimidinediamine]",250 to 500
6,"Cc1cnc(Nc2ccc3c(c2)[C@@H]2NC(=O)O[C@@H]2C3)nc1Nc1ccc2c(c1)NC(=O)C(C)(C)O2 [Compound 13, N4-(2,2-Dimethyl-3-oxo-4H-benz[1,4]oxazin-6-yl)-5-methyl-N2-[(3aS,8aR)-2-oxo-3,3a,8,8a-tetrahydro-2H-indeno[1,2-d]oxazol-5-yl]-2,4-pyrimidinediamine]",1000 to 5000
7,"O=C1N[C@H]2c3cc(Nc4ncc(Cl)c(Nc5cccc6c5OC(F)(F)O6)n4)ccc3C[C@H]2O1 [Compound 25, 5-Chloro-N4-(2,2-difluoro-1,3-benzodioxol-4-yl)-N2-[(3aS,8aR)-2-oxo-3,3a,8,8a-tetrahydro-2H-indeno[1,2-d]oxazol-5-yl]-2,4-pyrimidinediamine]",≥ 5000
8,"O=C1N[C@H]2c3cc(Nc4ncc(Cl)c(Nc5ccc(CNS(=O)(=O)C6CC6)cc5)n4)ccc3C[C@H]2O1 [Compound 16, 5-Chloro-N4-[4-[[N-(cyclopropylsulfonyl)amino]methyl]phenyl]-N2-[(3aS,8aR)-2-oxo-3,3a,8,8a-tetrahydro-2H-indeno[1,2-d]oxazol-5-yl]-2,4-pyrimidinediamine]",1000 to 5000
9,"Cc1cnc(Nc2ccc3c(c2)[C@@H]2NC(=O)O[C@@H]2C3)nc1Nc1cccc2c1CCC2 [Compound 20, N4-(Indan-4-yl]-5-methyl-N2-[(3aS,8aR)-2-oxo-3,3a,8,8a-tetrahydro-2H-indeno[1,2-d]oxazol-5-yl]-2,4-pyrimidinediamine]",< 250
10,"Cc1cnc(Nc2ccc3c(c2)[C@H]2NC(=O)O[C@H]2C3)nc1Nc1ccc2c(c1)N(C)C(=O)C(C)(C)S2 [Compound 7, 5-Methyl-N2-[(3aR,8aS)-2-oxo-3,3a,8,8a-tetrahydro-2H-indeno[1,2-d]oxazol-5-yl]-N4-(2,2,4-trimethyl-3-oxo-benz[1,4]thiazin-6-yl)-2,4-pyrimidinediamine]",< 250
11,"Cc1cnc(Nc2ccc3c(c2)[C@@H]2NC(=O)O[C@@H]2C3)nc1Nc1ccc(CNS(=O)(=O)C2CC2)cc1 [Compound 15, N4-[4-[[N-(Cyclopropylsulfonyl)amino]methyl]phenyl]-5-methyl-N2-[(3aS,8aR)-2-oxo-3,3a,8,8a-tetrahydro-2H-indeno[1,2-d]oxazol-5-yl]-2,4-pyrimidinediamine]",1000 to 5000
12,"Cc1cnc(Nc2ccc3c(c2)[C@H]2NC(=O)OC2C3)nc1Nc1ccc2c(n1)N(C)C(=O)C(C)(C)O2 (stereo partly drawn) [Compound 5, 5-Methyl-N2-[(3aR,8aS)-2-oxo-3,3a,8,8a-tetrahydro-2H-indeno[1,2-d]oxazol-5-yl]-N4-(2,2,4-trimethyl-3-oxo-5-pyrido[1,4]oxazin-6-yl)-2,4-pyrimidinediamine]",< 250
13,"Cc1cnc(Nc2ccc3c(c2)[C@@H]2NC(=O)O[C@@H]2C3)nc1Nc1cccc2c1CCCC2 [Compound 22, 5-Methyl-N2-[(3aS,8aR)-2-oxo-3,3a,8,8a-tetrahydro-2H-indeno[1,2-d]oxazol-5-yl]-N4-(5,6,7,8-tetrahydronaphthalen-1-yl)-2,4-pyrimidinediamine]",250 to 500
14,"CN1C(=O)C(C)(C)Oc2ccc(Nc3nc(Nc4ccc5c(c4)[C@@H]4NC(=O)O[C@@H]4C5)ncc3Cl)cc21 [Compound 10, 5-Chloro-N2-[(3aS,8aR)-2-oxo-3,3a,8,8a-tetrahydro-2H-indeno[1,2-d]oxazol-5-yl]-N4-(2,2,4-trimethyl-3-oxo-benz[1,4]oxazin-6-yl)-2,4-pyrimidinediamine]",< 250
15,"O=C1N[C@@H]2c3cc(Nc4ncc(Cl)c(Nc5cccc6c5CCC6)n4)ccc3CC2O1 (stereo partly drawn) [Compound 34, 5-Chloro-N4-(indan-4-yl]-5-methyl-N2-[(3aR,8aS)-2-oxo-3,3a,8,8a-tetrahydro-2H-indeno[1,2-d]oxazol-5-yl]-2,4-pyrimidinediamine]",≥ 5000
16,"Cc1cnc(Nc2ccc3c(c2)[C@H]2NC(=O)O[C@H]2C3)nc1Nc1cccc2c1CCC2 [Compound 35, N4-(Indan-4-yl]-5-methyl-N2-[(3aR,8aS)-2-oxo-3,3a,8,8a-tetrahydro-2H-indeno[1,2-d]oxazol-5-yl]-2,4-pyrimidinediamine]",< 250
17,"Cc1cnc(Nc2ccc3c(c2)[C@H]2NC(=O)O[C@H]2C3)nc1Nc1ccc2c(c1)N(C)C(=O)C(C)(C)O2 [Compound 2, 5-Methyl-N2-[(3aR,8aS)-2-oxo-3,3a,8,8a-tetrahydro-2H-indeno[1,2-d]oxazol-5-yl]-N4-(2,2,4-trimethyl-3-oxo-benz[1,4]oxazin-6-yl)-2,4-pyrimidinediamine]",< 250
18,"O=C1N[C@H]2c3cc(Nc4ncc(Cl)c(Nc5cccc6c5CCCC6)n4)ccc3C[C@H]2O1 [Compound 21, 5-Chloro-N2-[(3aS,8aR)-2-oxo-3,3a,8,8a-tetrahydro-2H-indeno[1,2-d]oxazol-5-yl]-N4-(5,6,7,8-tetrahydronaphthalen-1-yl)2,4-pyrimidinediamine]",500 to 1000
19,"O=C1CO[C@H]2Cc3ccc(Nc4ncc(Cl)c(Nc5ccc(CNS(=O)(=O)C6CC6)cc5)n4)cc3[C@H]2N1 [Compound 40, 5-Chloro-N4-[4-[[N-(cyclopropylsulfonyl)amino]methyl]phenyl]-N2-[(4aR,9aS)-3-oxo-2,3,4,4a,9a-hexahydroindeno[2,1-b][1,4]oxazin-6-yl]-2,4-pyrimidinediamine]",< 250
20,"O=C1N[C@@H]2c3cc(Nc4ncc(Cl)c(Nc5ccc(CCNS(=O)(=O)C6CC6)cc5)n4)ccc3C[C@@H]2O1 [Compound 1, 5-Chloro-N4-[4-[2-[N-(cyclopropylsulfonyl)amino]ethyl]phenyl]-N2-[(3aR,8aS)-2-oxo-3,3a,8,8a-tetrahydro-2H-indeno[1,2-d]oxazol-5-yl]-2,4-pyrimidinediamine]",1000 to 5000
21,"O=C1N[C@@H]2c3cc(Nc4ncc(Cl)c(Nc5ccc(CNS(=O)(=O)C6CC6)cc5)n4)ccc3C[C@@H]2O1 [Compound 8, 5-Chloro-N4-[4-[[N-(cyclopropylsulfonyl)amino]methyl]phenyl]-N2-[(3aR,8aS)-2-oxo-3,3a,8,8a-tetrahydro-2H-indeno[1,2-d]oxazol-5-yl]-2,4-pyrimidinediamine]",< 250
22,"Cc1cnc(Nc2ccc3c(c2)[C@H]2NC(=O)CO[C@H]2C3)nc1Nc1ccc2c(c1)N(C)C(=O)C(C)(C)O2 [Compound 38, 5-Methyl-N2-[(4aR,9aS)-3-oxo-2,3,4,4a,9a-hexahydroindeno[2,1-b][1,4]oxazin-6-yl]-N4-(2,2,4-trimethyl-3-oxo-benz[1,4]oxazin-6-yl)-2,4-pyrimidinediamine]",250 to 500
23,"CCN1C(=O)C(C)(C)Oc2ccc(Nc3nc(Nc4ccc5c(c4)[C@@H]4NC(=O)O[C@@H]4C5)ncc3Cl)cc21 [Compound 12, 5-Chloro-N4-(2,2-dimethyl-4-ethyl-3-oxo-benz[1,4]oxazin-6-yl)-N2-[(3aS,8aR)-2-oxo-3,3a,8,8a-tetrahydro-2H-indeno[1,2-d]oxazol-5-yl]-2,4-pyrimidinediamine]",250 to 500
24,"Cc1cnc(Nc2ccc3c(c2)[C@@H]2NC(=O)O[C@@H]2C3)nc1Nc1ccc(OCc2cccnc2)cc1 [Compound 32, 5-Methyl-N2-[(3aS,8aR)-2-oxo-3,3a,8,8a-tetrahydro-2H-indeno[1,2-d]oxazol-5-yl]-N4-[4-(pyridin-3-ylmethoxy)phenyl]-2,4-pyrimidinediamine]",250 to 500
25,"Cc1cnc(Nc2ccc3c(c2)[C@@H]2NC(=O)O[C@@H]2C3)nc1Nc1ccc2c(c1)N(C)C(=O)C(C)(C)O2 [Compound 9, 5-Methyl-N2-[(3aS,8aR)-2-oxo-3,3a,8,8a-tetrahydro-2H-indeno[1,2-d]oxazol-5-yl]-N4-(2,2,4-trimethyl-3-oxo-benz[1,4]oxazin-6-yl)-2,4-pyrimidinediamine]",250 to 500
26,Cc1cc(CNS(=O)(=O)C2CC2)ccc1Nc1nc(Nc2ccc3c(c2)[C@@H]2NC(=O)OC2C3)ncc1C (some centres unmarked) [Compound 18],1000 to 5000
